Test results published in paper PMC6158189, “A pharmacological probe identifies cystathionine β-synthase as a new negative regulator for ferroptosis” (Cell Death & Disease, 2018).

Experiments:
Test in all cases: cell viability of stable HEK293T lines
Format in all cases: cell-based
293T-EV cells = conditions: Homo sapiens, HEK-293T, 24 h
Procedure: (§1) Fig. 4 CH004 arrests the cell cycle at the S phase. a CH004 reduces the cell viability of HEK293T and HepG2 cells. HEK293T or HepG2 cells were treated with indicated concentrations of CH004 for 24 h before the cell number was analyzed using the CellTiter96® Aqueous One Solution Cell Proliferation Assay (Promega, Materials and Methods). The means at each concentration of one representative experiment are shown as percentages of DMSO (control, 100%). Means ± SDs (n = 3). b Overexpression of hCBS or knock-down of hCBS counteracts the growth inhibition exerted by CH004 in HEK293T cells. Indicated HEK293T stable cell lines were treated with the CH004 or DMSO for 24 h. Then, the cell viability was quantified with the CellTiter 96® Aqueous One Solution Cell Proliferation Assay under the standard protocol (Promega). The means at each concentration are shown as percentages of their respective DMSO controls (100%). Means ± SDs (n = 3). The efficacy for CBS overexpression and knock-down in HEK293T cells was determined by Western blotting using an anti-CBS antibody (3E1, 1:2000; Abnova). c CH004 induces cell death in HEK293T and HepG2 cells. […] The means of percentages of dead cells (DMSO, 100%) from three independent samples are shown in d. Means ± SDs (n = 3). e, f Pharmacological inhibition or genetic knock-down of hCBS in HEK293T cells arrests the cell cycle at S phase. HEK293T cells were incubated with indicated compounds for 12 h, and the DNA content was quantified with propidium iodide to analyze the cell cycle distribution by flow cytometry (e). The cell cycle distributions for HEK293T-shNT and HEK293T-shCBS cells were accordingly analyzed and are shown in f. One representative diagram is shown for each condition. The mean percentages of various cell phases from three independent samples are shown in the respective right panels. Means ± SDs (n = 3). Statistical analyses were performed by two-way ANOVA with Bonferroni post-tests. *p < 0.05; **p < 0.01; ***p < 0.001.
(§2) HEK293T cells stably expressing hCBS-FL WT or Q222A mutant were generated using lentiviral particles carrying pCDH-hCBS or pCDH empty vector (EV) and pPACK Packaging Plasmid Mix (SBI, Mountain View, CA, USA) according to the manufacturer’s instructions. Similarly, CBS-knock-down HEK293T cells or control cells were obtained using the miRzip lentiviral vector according to the manufacturer’s protocol (SBI, MZIPxxxPA-1). The infected cells were then incubated with 2.5 μg/mL puromycin for two weeks until stable clones were obtained. The target sequence of shRNA-CBS was 5′-GTAGTTCCGCACTGAGTCG-3′, which has been used previously. The scramble control was 5′-TCCGCAGGTATGCACGCGT-3′.
(§3) Figure S12. CH004 inhibits the proliferation of cells via specifically targeting hCBS. (A-B) Dose-dependent curves of CH004 on the cell viability of CBS-stably-expressed HEK293T (A) or CBS-knockdown cells (B). Percentages of cell viability of CH004 obtained in Figure 4b were fitted to the non-linear equation using GraphPad Prism 5 to get the IC50 values of CH004 in respective cell lines (●, 293T-CBS WT cells; ○, 293T-EV; ▲, 293T-shCBS; △, 293T-shNT). Means ± SDs (n=3). […] HEK293T cells stably expressing of the lentiviral shRNA targeting CBS (shCBS) or control shRNA (shNT) were seeded at the density of ~ 3,000 cells per well in 96-well plates and the cell images in the bright field were acquired at indicated times by Image Xpress Micro® XLS (Molecular Devices, Sunnyvale, CA) under 10 × objective lens. Representative images of two independent experiments (n = 6 for each experiment) are shown in C. The cell numbers of images under 4 × objective lens of one representative experiment were calculated by Image Xpress Software and the data is shown in D. Means ± SDs (n=6). […] HepG2 cells were seeded in a 96-well plate at a density of 20000 cells per well and cultured for 24 h before treatment with indicated concentrations of CH004 for another 24 h. […]

293T-CBS WT cells = test system: 293T-CBS WT cells
Procedure: as §1, §2, §3

293T-shNT cells = conditions: Homo sapiens, HEK-293T, 24 h
Procedure: as §1, §2, §3

293T-shCBS cells = test system: 293T-shCBS cells
Procedure: as §1, §2, §3

In the case of `Cn1nc(Cc2ccccc2)nc2c(=O)n(C)c(=O)nc1-2` [CH004, 3-benzyl-1,6-dimethylpyrimido[5,4-e][1,2,4]triazine-5,7(1H,6H)-dione], the IC50 (293T-EV cells) is reported as 9.6 ± 1.6 µM, the “counteraction of inhibitory effect by overexpression of CBS” value (293T-CBS WT cells; 293T-CBS WT vs 293T-EV) is reported as 3 fold and the IC50 (293T-CBS WT cells; Homo sapiens, HEK-293T, 24 h) is reported as 35.5 ± 1.2 µM. The IC50 (293T-shNT cells) was 2.6 ± 0.5 µM, the “increase of IC50 by CBS knock-down” value (293T-shCBS cells; 293T-shCBS vs 293T-shNT) was 15 fold and the IC50 (293T-shCBS cells; Homo sapiens, HEK-293T, 24 h) was 43.2 ± 8.3 µM.
